Source: publication PMC11231141, “Ube3a unsilencer for the potential treatment of Angelman syndrome” (Nature Communications, 2024)
Like-named read-outs stand apart in the source and are kept apart here.

How the values were obtained:
[1] = system: Snord115, Dlg2, Nrxn3, Malat1; assay: quantitative RT-PCR of long genes in cultured mouse neurons; type: cell-based; conditions: 1 µM (S)-PHA533533 or 0.3 µM topotecan, 72 h, vs DMSO
From the text: (§1) […]. […] […]. […] […]. […] […].

Ube3a mRNA = assay: quantitative RT-PCR of Ube3a mRNA in wild-type primary neurons; type: cell-based, mouse
Description: (§2) from the paternal allele in mouse wild-type primary neurons. Primar y cortical neurons derived from wild-type (WT) mice were treated either with 0.1% DMSO as a vehicle, 1 µM ( S)-P HA53 35 33 , or 0.3 µ M to po te can for 72 hours at DIV7. Following the treatment, the relative quantity of ( a) Ube3a […]
determined through western blotting, with the data averaged across three individual experiments, depicted in (c). All data were normalized to GAPDH/Gapdh expression, log- transformed, mean-centered, and autoscaled for statistical analysis (n = 4 experiments fo r R T-PCR, and n = 3 for western blot; me a n ± SE M , o n e -way ANOVA followed by Dunnett ’s post hoc test, ** p < 0.01, *** p < 0.001, **** p < 0.0001). µM – micromolar; DMSO – dimethyl sulfoxide; kDA – kilodalton; Norm. – […]
(1 picture or pasted object on this page, not shown here)

paternal UBE3A-YFP [2] = assay: paternal UBE3A-YFP unsilencing, high-content imaging in mouse primary neurons (Ube3a m+/pYFP); type: cell-based; conditions: for Emax: Neuron, highest concentration with at least 90% neurons alive, read-out: EMAX (% patUBE3A-YFP+)
Description: We aimed to identify novel unsilencers of paternal Ube3a by employing a previously developed high-content small molecule screen. This screen was performed in primary neurons derived from knock-in mice harboring a yellow fluorescent protein (YFP) fused to the paternal allele of Ube3a[25], allowing for fluorescence-based identification of the paternal allele-specific expression of UBE3A-YFP (detected by a GFP antibody enhancement) (Fig. 1a and Supplementary Table 1). We screened >2800 compounds from a Pfizer chemogenetic library, which contains small molecules selected to cover a broad spectrum of pharmacological space. We screened small molecules at 1 μM concentration and used 0.3 μM topotecan, a topoisomerase inhibitor that can downregulate the Ube3a-ATS and unsilence the paternal Ube3a, as a positive control (Fig. 1b)[10]. Small molecules that increase the UBE3A-YFP signal represent putative paternal Ube3a unsilencers.
Immunofluorescence for high-content imaging analysis was performed as previously described with slight modifications. Following drug treatment at DIV7, primary neurons were fixed at DIV10 with 4% paraformaldehyde in PBS at room temperature (RT) for 10 min. After three brief washes in PBS, neurons were permeabilized with PBS/1% Triton-X-100 at RT for 10 min, followed by blocking with PBS including 5% normal goat serum and 0.2% Triton-X-100 (NGST) at RT. […] All acquired images were analyzed by CellProfiler[48]. The mean GFP signal from each drug-treated well was normalized to the average mean GFP signal from DMSO-treated neurons. […] Fluorescent images were acquired using a Nikon Ti2 eclipse fluorescence microscope (Nikon Instruments Inc.) and analyzed using Nikon NIS-Elements software (Nikon Instruments Inc.). Antibody-enhanced UBE3A-YFP fluorescence intensities were determined from DAPI and NeuN double-positive neurons in drug-treated wells and normalized to neurons in DMSO-treated wells. The cytotoxicity of a compound was determined by calculating the percentage of neurons (DAPI and NeuN double-positive cells) alive in drug-treated wells compared to the DMSO-treated wells. For determining the effectiveness of unsilencing, the percent neurons expressing GFP signal in neurons (DAPI and NeuN double-positive cells) in drug-treated wells was thresholded such that the percent GFP positive neurons in DMSO-treated wells was set to ~5%. Concentrations where more than 10% of neurons were dead compared to DMSO-treated wells were manually removed and the last included data point was set as a maximum efficacy. Sigmoidal curve fitting for the dose-response analysis was performed using GraphPad Prism software version 8.0 (GraphPad Software).

UBE3A protein = assay: western blot of UBE3A protein in wild-type primary neurons; type: cell-based, mouse
Description: 2’ MOE gapmer antisense oligonucleotides (ASOs) designed to target mouse Cdk2 sequence […], Cdk5 sequence […], Top1 sequence […], and scrambled […] sequence as a negative control (Integrated DNA Technologies) were formulated in water and added to cultured cortical neurons grown on 6-well plates at DIV5 at a final concentration of 10 μM. Neurons were further cultured and treated at DIV7 with vehicle (0.1% DMSO) or the indicated compounds for 72 h. For western blot analysis, neurons were washed once with PBS and then lysed using RIPA buffer (50 mM Tris-HCl pH 8.0, 150 mM NaCl, 1% NP−40, 0.5% Na-deoxycholate, 0.5% SDS) and protease inhibitor cocktail (P8340, MilliporeSigma) on ice. […]
as §2
determined through western blotting, with the data averaged across three individual experiments, depicted in (c). […]

Pantr1, Airn = assay: quantitative RT-PCR of antisense lncRNA transcripts in cultured mouse neurons; type: cell-based; conditions: 1 µM (S)-PHA533533 or 0.3 µM topotecan, 72 h, vs DMSO
From the text: as §1

paternal UBE3A-YFP [3] = assay: paternal UBE3A-YFP western blot after ASO-mediated knockdown of candidate targets; type: cell-based, mouse; conditions: for unsilencing of paternal Ube3a after ASO-mediated knockdown of TOP1: 10 µM ASO at DIV5, 1 µM (S)-PHA533533 or 0.3 µM topotecan 72 h from DIV7
Description: . […] Scrambled ASO together with DMSO treatment were used as controls for any non-specific effects.
The addition of TOP1 catalyzes supercoiled DNA substrate (lane 1) into slower migrating relaxed DNA (lane 2). […] . Following the treatment, the relative quantities of (h) Snord115, (i) Dlg2, (j) Nrxn3, (k) Malat1, (l) Pantr1, and (m) Airn transcripts were determined by quantitative RT-PCR (n = 4 experiments; mean ± SEM).
2’ MOE gapmer antisense oligonucleotides (ASOs) designed to target mouse Cdk2 sequence […], Cdk5 sequence […], Top1 sequence […], and scrambled […] sequence as a negative control (Integrated DNA Technologies) were formulated in water and added to cultured cortical neurons grown on 6-well plates at DIV5 at a final concentration of 10 μM. Neurons were further cultured and treated at DIV7 with vehicle (0.1% DMSO) or the indicated compounds for 72 h. For western blot analysis, neurons were washed once with PBS and then lysed using RIPA buffer (50 mM Tris-HCl pH 8.0, 150 mM NaCl, 1% NP−40, 0.5% Na-deoxycholate, 0.5% SDS) and protease inhibitor cocktail (P8340, MilliporeSigma) on ice.

[4] = 1 µM (S)-PHA533533 or 0.3 µM topotecan, 72 h at DIV7

Row | EC50 (paternal UBE3A-YFP [2]; Mus musculus, Primary neuron, 72 h, mean ± SEM, n = 3) [nM] | Compound | expression of long genes (Snord115, Dlg2, Nrxn3, Malat1) [1] | Ube3a mRNA levels in WT neurons (Ube3a mRNA) | paternal UBE3A-YFP immunofluorescent signal (paternal UBE3A-YFP [2]) | Emax (paternal UBE3A-YFP [2]; Mus musculus, 72 h, mean ± SEM) [%] | UBE3A protein levels in WT neurons (UBE3A protein) | expression levels of Pantr1 or Airn (Pantr1, Airn) | unsilencing of paternal UBE3A-YFP after ASO-mediated knockdown of CDK5 (paternal UBE3A-YFP [3]; 10 µM ASO at DIV5, 1 µM (S)-PHA533533 72 h from DIV7) | unsilencing of paternal Ube3a after ASO-mediated knockdown of TOP1 (paternal UBE3A-YFP [3]) | Ube3a mRNA levels in WT neurons (Ube3a mRNA; [4]) | paternal UBE3A-YFP immunofluorescent signal (paternal UBE3A-YFP [2]; 0.3 μM topotecan, 1 μM (R)- or (S)-PHA533533, 72 h) | UBE3A protein levels in WT neurons (UBE3A protein; [4])
1 |  | C[C@H](C(=O)Nc1cc(C2CC2)[nH]n1)c1ccc(N2CCCC2=O)cc1 [(S)-PHA533533] | significantly reduced the expression of only Snord115 | significantly increased | high levels of paternal UBE3A-YFP | 80 ± 8.41 | significantly increased | neither topotecan nor (S)-PHA533533 treatments changed the expression levels | nor did it occlude the unsilencing | did not affect |  |  | 
2 | 80 ± 20 | CC[C@@]1(O)C(=O)OCc2c1cc1n(c2=O)Cc2cc3c(CN(C)C)c(O)ccc3nc2-1 [Topotecan, reference compound] | significantly impaired the expression of all the measured long genes |  |  | 66.31 ± 0.45 |  | neither topotecan nor (S)-PHA533533 treatments changed the expression levels |  | almost completely occluded | significantly increased | high levels of paternal UBE3A-YFP | significantly increased
